This is an account of results in patent US10603357B2, “Therapeutic TREM-1 peptides” (Universite de Lorraine, priority 2004, dated 2020).

Common to all, as to assay type: in vivo, mouse
The subject of one assay is BALB/c mice. Kind of assay: endotoxin-induced septic shock in mice, hP5 (Example 5). The note with it: 200 microliters peptide i.p. at −1 h, 0 h, +4 h, 200 microg LPS i.p., 15 mice per group. Here is the method:
Septic shock was induced in male Balb/c mice (n=15/group) with […] of LPS as described in Material and Methods. hP5 peptide or control were administered at the following time points: −1 h, 0 h, +1 h+4 h. Mortality was followed twice a day for 7 days. Data were analysed using GraphPad Prism Survival curve analysis.
For the experiment, male BALB/c mice (19-21 g) were randomly grouped (15 mice per group) and injected intraperitoneally (i.p.) with 200 microg of LPS from E. coli 0111:B4 (Sigma). A blinded investigator performed all injections. 200 microliters of TREM-1 peptides dissolved in water 10% DMSO, 9% Solutol were administered intraperitoneally at −1 h, 0 h, +1 h, +4 h prior and after LPS injection. Viability of treated mice was monitored twice a day for 7 days.

Another assay relates to C57BL/6 mice. The experiment in a line: Cecal Ligation and Puncture model in mice, hP5 (Example 6). The note with it: 200 μl i.p. at −1 h, 0 h, +4 h and +24 hours; n=15/group. As to the method:
Mortality was followed twice a day for 10 days. Data were analyzed using GraphPad Prism Survival curve analysis.
For the experiment the mice underwent a standardized preparation for laparotomy (anaesthesia with 2% inhaled isoflurane in oxygen, shaving with animal clippers, alcohol scrub). A 1 cm incision was made on the midline. The cecum was exposed and will be tightly ligated at 50-80% over its base with a 4-0 silk suture avoiding bowel obstruction. The cecum was then punctured once with a 23G needle. The cecum was gently squeezed until feces be just visible through the puncture, and placed again in the abdominal cavity. The incision was thereafter be closed with a 4-0 silk. 200 μl of hP5 or its scrambled peptide control were freshly dissolved in water 10% DMSO, 9% solutol and injected intraperitoneally with a 22 G needle at the following time points: −1, 0, +4, +24. No fluid resuscitation was administered.
Survival and Moribundity were observed twice a day for 10 days.

In a further assay the test system is mice. Kind of assay: DSS colitis model in mice, hP5 (Example 7). Here is the method:
On day 0 of the study, the water supply was removed and replaced with 3% Dextran Sulfate Sodium (DSS) From day 0 to day 6, this solution was the only source of fluids. Water was administered for the rest of the experiment (day 7-11). Healthy controls received water only.
From day 3 to day 10 mice were treated with either hP5, or a sequence-scrambled control peptide. Peptides were dissolved in DMSO at 10 mg/ml and stored at +4° C. Before administration, the stock solution was diluted 1:10 in water 10% Solutol® HS 15 (BASF). Final vehicle concentrations: 1% DMSO, 10% solutol in water. 200 μl of these freshly prepared solutions of hP5, its scrambled control or vehicle were injected intraperitoneally with a 25 G needle.
Animals were weighted daily and monitored on days 3, 4, 5, 6, 7 and 10 for rectal bleeding and stool consistency. For each group, the disease activity index (DAI) was determined by evaluating changes in weight, stool consistency and presence of gross blood during the study, as described below:
To determine the presence of occult blood in stool, a pea-sized stool sample was placed on a slide. Then two drops of reagent (Hemocult Sensa, Beckman Coulter) were placed onto the stool sample on the slide and a change of colour was observed. The presence of occult blood was graded using a score of 0 for no colour; 1 for a very light blue (+/−) colour taking over 30 seconds to appear, 2 for a blue colour developing in […] (+); 3 for an immediate change in colour (++) and 4 for gross blood observable on the slide.
On day 11 mice were euthanized by cervical dislocation to allow colon length evaluation. An incision was done in the abdomen to expose the colon. The stool in the colon was removed flushing with saline. The entire colon from cecum to anus was removed and the length was measured and reported as colon length (cm).
Data were analyzed using Graph Pad Prism. Results are given as means±standard error of the mean. The BW score, stool score and blood score were analyzed using two-way ANOVA test, Bonferroni post test. Colon length was analysed using one-way ANOVA, Dunn's post test. *P≤0.05; **P≤0.01; ***P≤0.001

In the case of “LQVEDSGLYQCVIYQPP (listed as Homo sapiens) [hP5]”, the “animals alive 7 days after LPS injection” value with BALB/c mice was found to be 80%. In addition, in the assay with C57BL/6 mice, the “mice alive at 10 days after CLP” value amounted to 66.6% and the “mice surviving at 72 hours after CLP” value worked out at 73.3%. In addition, the “Disease Activity Index (DAI) score” value with mice (3% DSS day 0-6, peptide i.p. daily from day 3, day 5, mean ± standard error) was 1.95±0.170. In addition, in the assay with mice (day 5), the “DAI inhibition compared to DSS+vehicle or DSS+scrambled peptide” value was ~50%. Moreover, in the assay with mice (day 10, mean ± standard error), the “Stool score (stool consistency)” value was determined as 0.71±0.474; the “blood score (haemoccult / gross blood)” value is given as 0.43±0.202; the “weight loss, expressed as a score” value is on record as 2.00±0.436. The same sequence displayed a colon length with mice (day 11, mean ± standard error) of 7.41±0.237 cm.
